Legend:
[1] = tested on: MEK1/2 (ERK1/2 phosphorylation); test: IC50 determination in the absence of viral infection, TNF-α-stimulated cells, pERK/ERK ratio by WES; assay type: cell-based; conditions: Homo sapiens, TNF-α 30 min then 1 h treatment, no virus
Procedure: Cells were lysed using cold modified RIPA buffer [0.24% (w/v) tris base (Sigma-Aldrich, St. Louis, Missouri, USA), 0.88% (w/v) NaCl (Carl Roth, Karlsruhe, Germany), 0.2% (v/v) 500 mM ethylenediaminetetraacetic acid (EDTA) (Sigma-Aldrich, St. Louis, Missouri, USA), 1% (v/v) Triton X-100 (Sigma-Aldrich, St. Louis, Missouri, USA), 0.5% (w/v) sodium deoxycholate (Sigma-Aldrich, St. Louis, Missouri, USA), 0.1% (w/v) sodium dodecyl sulfate (SDS) (Carl Roth, Karlsruhe, Germany), 10% (v/v) glycerol (Carl Roth, Karlsruhe, Germany), 0.05% phenylmethylsulfonyl fluoride (PMSF) (Carl Roth, Karlsruhe, Germany), 0.01% Benzonase® Nuclease (Sigma-Aldrich, St. Louis, Missouri, USA), protease inhibitor cocktail (Roche, Basel, Switzerland), and phosphatase inhibitor cocktail (Roche, Basel, Switzerland) in water]. Determination of the protein concentration was performed using the Pierce™ BCA Protein Assay Kit (Thermo Fisher Scientific Inc., Waltham, MA, USA) according to the manufacturer’s instructions. The samples were analyzed by Wes™ using a total protein concentration of 0.25–0.5 µg/µL for each sample, the Jess/Wes Separation kit (12–230 kDa), primary antibodies against ERK1/2, p44/42 MAPK (137F5) Rabbit mAb (Cell Signaling Technology, Danvers, MA, USA, Cat. No. 4695S) and phospho-ERK1/2 (pERK1/2), Phospho-p44/42 MAPK (Erk1/2) (Thr202/Tyr204) (D13.14.4E), XP® Rabbit mAb (Cell Signaling Technology, Danvers, MA, USA, Cat. no. 4370S) in a 1:50 dilution, anti-Influenza A virus Nucleoprotein (NP) antibody (rabbit MAb) (Sino Biological, Beijing, China Cat.no 40208-R010) in a 1:150 dilution, SARS-CoV-2 nucleocapsid protein antibody (ProSci Inc., Poway, CA, USA, Cat. no. 35-580) in a 1:100 dilution, the anti-goat, anti-rabbit, and anti-mouse detection modules, and the EZ Standard Pack 1 (12–230 kDa), according to the manufacturer’s instructions. Analysis of the obtained data was performed using the Compass for SW 4.1.0 software, Microsoft Excel, and the GraphPad Prism 9.2.0 software. Ratios were calculated from the area under the curve of the respective detected signals.
Twenty-four hours before the experiment, the growth medium was exchanged to medium with respective FBS or BSA concentration. Then, cells were stimulated by the addition of tumor necrosis factor alpha (TNF-α) (Sigma-Aldrich, St. Louis, Missouri, USA) for 30 min at 37°C, 5% CO2, followed by treatment with different zapnometinib concentrations and a DMSO (solvent) control for 1 h. For determination of the IC50 value in cells infected with IAV PR8 or SARS-CoV-2, cells were infected with the respective virus and treated with zapnometinib for 24 h as described in the “Virus yield reduction assay” section. After incubation, cell lysates were prepared, and the samples were analyzed by WES™ as described in the “Preparation of cell lysates and WES™ analysis” section. The pERK/ERK ratio was calculated and normalized to the solvent control. IC50 values were determined using the “log(inhibitor) vs. response -Variable slope (four parameters)” equation in GraphPad Prism version 9.4.0.

[2] = tested on: TMPRSS2; test: TMPRSS2 expression by flow cytometry; assay type: cell-based, Homo sapiens; conditions: Caco-2 cells, 24 h
Procedure: For flow cytometry analysis, 6 × 10^5 Caco-2 cells were seeded per well in six-well plates (Greiner Bio-One, Kremsmünster, Austria) and incubated for 24 h at 37°C, 5% CO2. Treatment with zapnometinib or a solvent control (1% DMSO) in medium containing 0.2% BSA was applied for 24 h. A single-cell solution was prepared using TrypLE reagent (Thermo Fisher Scientific, Waltham, MA, USA). Prior to staining, cells were treated with an FcR blocking reagent (Miltenyi Biotec, Bergisch Gladbach, Germany) for 10 min at 4°C. The cells were then stained with either a PE Mouse IgG1Isotype control antibody (BioLegend, San Diego, CA, USA) or a PE anti-human TMPRSS2 Antibody (BioLegend, San Diego, CA, USA), followed by a live-dead staining using the LIVE/DEAD™ Fixable Far Red Dead Cell Stain Kit (Thermo Fisher Scientific, Waltham, MA, USA). Cells were analyzed using the BD FACSCanto II flow cytometer (Becton Dickinson, Franklin Lakes, New Jersey, USA) and the FlowJo software (Becton Dickinson, Franklin Lakes, New Jersey, USA).

[3] = tested on: SARS-CoV-2; assay type: cell-based; conditions: 100 µM, Caco-2 cells, MOI 4, 10 h
[4] = tested on: IAV Fukui; set-up: method as in Laure et al., 2020; conditions: medium containing 0.2% BSA, ref Laure et al., 2020; cited from earlier work
[5] = tested on: IBV Lee; set-up: method as in Laure et al., 2020; conditions: medium containing 0.2% BSA, ref Laure et al., 2020; cited from earlier work

O=C(O)c1ccc(F)c(F)c1Nc1ccc(I)cc1Cl [zapnometinib, 2-(2-chloro-4-iodophenylamino)-N-3,4-difluoro benzoic acid]
IC50 ([1]; Caco-2, Caco-2 cells, 0% FBS): 0.04 µM | IC50 ([1]; Caco-2, Caco-2 cells, 0.2% BSA): 4.32 µM | IC50 ([1]; Caco-2, Caco-2 cells, 5% FBS): 4.46 µM | IC50 ([1]; Caco-2, Caco-2 cells, 10% FBS): 9.15 µM | IC50 ([1]; Calu-3, Calu-3 cells, 0% FBS): 0.06 µM | IC50 ([1]; Calu-3, Calu-3 cells, 0.2% BSA): 5.33 µM | IC50 ([1]; Calu-3, Calu-3 cells, 5% FBS): 6.64 µM | IC50 ([1]; Calu-3, Calu-3 cells, 10% FBS): 8.25 µM | increase of TMPRSS2 expression ([2]; 50 µM): 14% | increase of TMPRSS2 expression ([2]; 100 µM): 17% | Infected cells (SARS-CoV-2 N positive) normalized to solvent control [3]: 18.3% | amount of SARS-CoV-2 N [3]: reduced | distribution of the SARS-CoV-2 N [3]: did not change | EC50 [4]: 4.5 µM | EC50 [5]: 4.19 µM
